In this experiment the target is T1, ABCC10 (MRP7) (Homo sapiens, UniProt Q5T3U5).
T1 sequence (Q5T3U5 1-1492): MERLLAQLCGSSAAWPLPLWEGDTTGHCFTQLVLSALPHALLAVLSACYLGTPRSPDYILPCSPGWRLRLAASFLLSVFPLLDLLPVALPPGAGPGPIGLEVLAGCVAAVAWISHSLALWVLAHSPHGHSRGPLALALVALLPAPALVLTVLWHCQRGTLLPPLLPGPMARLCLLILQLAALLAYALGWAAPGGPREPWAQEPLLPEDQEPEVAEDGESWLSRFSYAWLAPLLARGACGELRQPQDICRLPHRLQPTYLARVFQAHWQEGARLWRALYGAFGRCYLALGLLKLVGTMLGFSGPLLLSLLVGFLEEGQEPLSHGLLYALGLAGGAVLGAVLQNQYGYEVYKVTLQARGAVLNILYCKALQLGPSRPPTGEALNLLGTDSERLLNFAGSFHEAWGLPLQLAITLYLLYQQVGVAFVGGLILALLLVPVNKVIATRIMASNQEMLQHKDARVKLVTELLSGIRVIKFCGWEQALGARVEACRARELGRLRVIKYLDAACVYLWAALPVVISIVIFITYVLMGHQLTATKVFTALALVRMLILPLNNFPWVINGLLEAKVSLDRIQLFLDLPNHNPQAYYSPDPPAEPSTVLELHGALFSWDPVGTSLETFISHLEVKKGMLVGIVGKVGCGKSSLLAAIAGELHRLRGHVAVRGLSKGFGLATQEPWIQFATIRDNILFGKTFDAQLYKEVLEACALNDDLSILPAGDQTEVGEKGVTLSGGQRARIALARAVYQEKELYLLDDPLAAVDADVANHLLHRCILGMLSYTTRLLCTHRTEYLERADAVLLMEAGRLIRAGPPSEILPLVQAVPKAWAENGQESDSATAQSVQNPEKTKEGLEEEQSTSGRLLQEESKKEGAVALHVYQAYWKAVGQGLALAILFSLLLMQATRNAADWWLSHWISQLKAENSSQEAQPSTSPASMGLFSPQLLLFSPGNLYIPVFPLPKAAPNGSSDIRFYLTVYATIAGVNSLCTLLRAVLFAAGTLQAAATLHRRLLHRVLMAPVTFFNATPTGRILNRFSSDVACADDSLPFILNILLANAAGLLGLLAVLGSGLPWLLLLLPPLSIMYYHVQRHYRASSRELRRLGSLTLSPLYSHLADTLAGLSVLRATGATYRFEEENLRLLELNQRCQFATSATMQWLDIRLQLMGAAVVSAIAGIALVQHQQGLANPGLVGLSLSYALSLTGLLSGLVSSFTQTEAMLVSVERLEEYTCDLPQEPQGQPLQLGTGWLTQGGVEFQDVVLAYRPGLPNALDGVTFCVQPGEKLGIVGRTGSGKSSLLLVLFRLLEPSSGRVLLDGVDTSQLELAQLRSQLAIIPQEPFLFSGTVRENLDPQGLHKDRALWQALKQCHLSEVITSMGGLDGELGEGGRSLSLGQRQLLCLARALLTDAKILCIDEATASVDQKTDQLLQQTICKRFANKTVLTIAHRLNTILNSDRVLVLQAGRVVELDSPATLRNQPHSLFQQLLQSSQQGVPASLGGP
As to the kind of experiment: [3H]-paclitaxel efflux, HEK293/ABCC10 vs HEK293/pcDNA3.[…] cells. Type of experiment: cell-based. Particulars: labelled compound; 0.01 uM; 37 C; whole cells.

Molecules are shown by their SMILES.

In the case of `CC(=O)O[C@H]1C(=O)[C@@]2(C)[C@H]([C@H](OC(=O)c3ccccc3)[C@]3(O)C[C@H](OC(=O)[C@H](O)[C@@H](NC(=O)c4ccccc4)c4ccccc4)C(C)=C1C3(C)C)[C@]1(OC(C)=O)CO[C@@H]1C[C@@H]2O` [[3H]-paclitaxel], the “[3H]-paclitaxel efflux, HEK293/ABCC10 vs HEK293/pcDNA3.1 cells” value was “due to active efflux of the [^3H]-paclitaxel via ABCC10”.

For the origin of these results see article PMC3954439 (Molecular cancer therapeutics, 2014).
